Results: ChEMBL document CHEMBL3044880, “Synthesis, NMR spectral studies and antimicrobial evaluation of some 2-(benzothiazol-2-yl)-1-(alkyl-2r,6c-diarylpiperidin-4-ylidine)hydrazine derivatives” (2013)
Values after ≈ are worked out from the molar mass of the structure shown. Active and inactive are the calls of the source. No cut-off for these calls is given here.

How the values were obtained:
Type in all cases: functional
Cryptococcus neoformans = assay: Antimicrobial activity against Cryptococcus neoformans assessed as growth inhibition after 72-96 hr by two-fold serial dilution method
Aspergillus niger = assay: Antimicrobial activity against Aspergillus niger assessed as growth inhibition after 72-96 hr by two-fold serial dilution method
Aspergillus flavus = assay: Antimicrobial activity against Aspergillus flavus assessed as growth inhibition after 72-96 hr by two-fold serial dilution method
Fusarium oxysporum = assay: Antimicrobial activity against Fusarium oxysporum assessed as growth inhibition after 72-96 hr by two-fold serial dilution method
Candida albicans = assay: Antimicrobial activity against Candida albicans assessed as growth inhibition by two-fold serial dilution method
Staphylococcus aureus = assay: Antimicrobial activity against Staphylococcus aureus MTCC 96 assessed as growth inhibition after 24 hr by two-fold serial dilution method
Pseudomonas aeruginosa = assay: Antimicrobial activity against Pseudomonas aeruginosa MTCC 741 assessed as growth inhibition after 24 hr by two-fold serial dilution method; conditions: MTCC 741, 24 h
Bacillus subtilis = assay: Antimicrobial activity against Bacillus subtilis MTCC 121 assessed as growth inhibition after 24 hr by two-fold serial dilution method; conditions: MTCC 121, 24 h
Escherichia coli = assay: Antimicrobial activity against Escherichia coli MTCC 443 assessed as growth inhibition after 24 hr by two-fold serial dilution method; conditions: MTCC 443, 24 h
Klebsiella pneumoniae = assay: Antimicrobial activity against Klebsiella pneumoniae MTCC 2272 assessed as growth inhibition after 24 hr by two-fold serial dilution method; conditions: MTCC 2272, 24 h

MIC (Cryptococcus neoformans) | MIC (Aspergillus niger) [µg/mL] | MIC (Aspergillus flavus) [µg/mL] | MIC (Fusarium oxysporum) | MIC (Candida albicans) [µg/mL] | MIC (Staphylococcus aureus) | MIC (Pseudomonas aeruginosa) [µg/mL] | MIC (Bacillus subtilis) [µg/mL] | MIC (Escherichia coli) [µg/mL] | MIC (Klebsiella pneumoniae) [µg/mL] | MIC (Staphylococcus aureus; MTCC 96, 24 h) [µg/mL] | SMILES
100 µg/mL (≈ 175 µM) | 200 (≈ 351 µM) | 200 (≈ 351 µM) | 50 µg/mL (≈ 87.7 µM) | 200 (≈ 351 µM) | inactive | 200 (≈ 351 µM) | 200 (≈ 351 µM) | 200 (≈ 351 µM) | 100 (≈ 175 µM) |  | CC1/C(=N/Nc2nc3ccccc3s2)CC(c2ccc(Br)cc2)NC1c1ccc(Br)cc1 (stereo not drawn)
200 µg/mL (≈ 469 µM) |  | 100 (≈ 234 µM) | 100 µg/mL (≈ 234 µM) | 200 (≈ 469 µM) | inactive | 100 (≈ 234 µM) | 200 (≈ 469 µM) |  | 50 (≈ 117 µM) |  | CCC1/C(=N/Nc2nc3ccccc3s2)CC(c2ccccc2)NC1c1ccccc1 (stereo not drawn)
inactive | 200 (≈ 423 µM) | 100 (≈ 212 µM) | inactive | 100 (≈ 212 µM) |  |  | 200 (≈ 423 µM) | 100 (≈ 212 µM) | 50 (≈ 106 µM) | 100 (≈ 212 µM) | COc1ccc(C2C/C(=N\Nc3nc4ccccc4s3)C(C)C(c3ccc(OC)cc3)N2)cc1 (stereo not drawn)
100 µg/mL (≈ 208 µM) | 50 (≈ 104 µM) | 200 (≈ 415 µM) | 100 µg/mL (≈ 208 µM) | 200 (≈ 415 µM) | inactive | 100 (≈ 208 µM) | 100 (≈ 208 µM) | 200 (≈ 415 µM) | 100 (≈ 208 µM) |  | CC1/C(=N/Nc2nc3ccccc3s2)CC(c2ccccc2Cl)NC1c1ccccc1Cl (stereo not drawn)
 | 200 (≈ 502 µM) | 200 (≈ 502 µM) | 200 µg/mL (≈ 502 µM) | 100 (≈ 251 µM) | inactive | 200 (≈ 502 µM) | 100 (≈ 251 µM) | 200 (≈ 502 µM) | 200 (≈ 502 µM) |  | c1ccc(C2CC(=NNc3nc4ccccc4s3)CC(c3ccccc3)N2)cc1 (stereo not drawn)
200 µg/mL (≈ 485 µM) | 100 (≈ 242 µM) |  | 200 µg/mL (≈ 485 µM) | 100 (≈ 242 µM) |  | 200 (≈ 485 µM) | 100 (≈ 242 µM) | 25 (≈ 60.6 µM) | 100 (≈ 242 µM) | 200 (≈ 485 µM) | CC1/C(=N/Nc2nc3ccccc3s2)CC(c2ccccc2)NC1c1ccccc1 (stereo not drawn)
200 µg/mL (≈ 446 µM) | 100 (≈ 223 µM) | 100 (≈ 223 µM) | 100 µg/mL (≈ 223 µM) | 100 (≈ 223 µM) | inactive | 200 (≈ 446 µM) | 100 (≈ 223 µM) |  | 25 (≈ 55.7 µM) |  | CC1/C(=N/Nc2nc3ccccc3s2)CC(c2ccc(F)cc2)NC1c1ccc(F)cc1 (stereo not drawn)
200 µg/mL (≈ 415 µM) | 100 (≈ 208 µM) | 50 (≈ 104 µM) | 200 µg/mL (≈ 415 µM) |  | inactive | 100 (≈ 208 µM) | 50 (≈ 104 µM) | 25 (≈ 51.9 µM) | 50 (≈ 104 µM) |  | CC1/C(=N/Nc2nc3ccccc3s2)CC(c2ccc(Cl)cc2)NC1c1ccc(Cl)cc1 (stereo not drawn)

SMILES | MIC (Cryptococcus neoformans) | MIC (Aspergillus niger) [µg/mL] | MIC (Aspergillus flavus) [µg/mL] | MIC (Fusarium oxysporum) | MIC (Candida albicans) [µg/mL] | MIC (Staphylococcus aureus) | MIC (Pseudomonas aeruginosa) [µg/mL] | MIC (Bacillus subtilis) [µg/mL] | MIC (Escherichia coli) [µg/mL] | MIC (Klebsiella pneumoniae) [µg/mL] | MIC (Staphylococcus aureus; MTCC 96, 24 h) [µg/mL]
CN[C@@H]1[C@H](O[C@H]2[C@H](O[C@H]3[C@H](O)[C@@H](O)[C@H](N=C(N)N)[C@@H](O)[C@@H]3N=C(N)N)O[C@@H](C)[C@]2(O)C=O)O[C@@H](CO)[C@H](O)[C@H]1O [STREPTOMYCIN] |  |  |  |  |  |  | 50 (≈ 86 µM) | 12.5 (≈ 21.5 µM) | 50 (≈ 86 µM) | 20 (≈ 34.4 µM) | 50 (≈ 86 µM)
C[C@@H]1[C@H](O)[C@@H](C)/C=C/C=C/C=C/C=C/C=C/C=C/C=C/[C@H](O[C@@H]2O[C@H](C)[C@@H](O)[C@H](N)[C@@H]2O)C[C@@H]2O[C@](O)(C[C@@H](O)C[C@@H](O)[C@H](O)CC[C@@H](O)C[C@@H](O)CC(=O)O[C@H]1C)C[C@H](O)[C@H]2C(=O)O [AMPHOTERICIN B] | 25 µg/mL (≈ 27.1 µM) | 50 (≈ 54.1 µM) | 50 (≈ 54.1 µM) | 25 µg/mL (≈ 27.1 µM) | 25 (≈ 27.1 µM) |  |  |  |  |  | 
